The text below walks through data of US8101615B2, “1,4-diaryl-dihydropyrimidin-2-ones and their use as human neutrophil elastase inhibitors” (Bayer Pharma Aktiengesellschaft, priority 2004, dated 2012).

The term IC50 denotes the point on the concentration scale where inhibition reaches its midpoint. Low values mean higher potency, high ones lower potency.

For the first assay, the system named is human polymorphonuclear cells (PMNs). Nature of the assay: In vitro PMN elastolysis assay (Example II-A). Type of assay: cell-based. As to conditions: at 1.2 μM; mean±s.e.m.; n=3 different donors at 3.6×10^5 cells per well. As for the experimental part:
This assay is used to determine the elastolytic potential of human polymorphonuclear cells (PMNs) and assess the proportion of degradation due to neutrophil elastase [cf. Z. W. She et al., Am. J. Respir. Cell. Mol. Biol. 9, 386-392 (1993)].
Tritiated elastin, in suspension, is coated on to a 96 well plate at 10 μg per well. Test and reference [ZD-0892 (J. Med. Chem. 40, 1876-1885, 3173-3181 (1997), WO 95/21855) and α1 protease inhibitor (α1PI)] compounds are added to the wells at the appropriate concentrations. Human PMNs are separated from peripheral venous blood of healthy donors and resuspended in culture media. The neutrophils are added to the coated wells at concentrations ranging between 1×10^6 to 1×10^5 cells per well. Porcine pancreatic elastase (1.3 μM) is used as a positive control for the assay, and α1PI (1.2 μM) is used as the positive inhibitor of neutrophil elastase. The cellular control is PMNs without compound at each appropriate cell density. The cells plus compounds are incubated in a humidified incubator at 37° C. for 4 hours. The plates are centrifuged to allow the harvest of cell supernatant only. […] The plates are dried until no liquid is visible in the wells and read in a beta counter for 3 minutes per well. […]
The compounds of this invention are evaluated for their inhibitory activity in this HNE-dependent model of neutrophil elastolysis.
“α1PI: α1 protease inhibitor, used as the positive inhibitor of neutrophil elastase”: the “inhibition of 3H-elastin elastolysis” value was 83.46±3.97%.

The same assay, now with this note: mean±s.e.m.; n=2 different donors at 3.6×10^5 cells per well.
Molecule `COc1ccc(C(=O)N[C@H](C(=O)N2CCC[C@H]2C(=O)N[C@H](C(=O)C(F)(F)F)C(C)C)C(C)C)cc1` [ZD-0892] returned an IC50 of 45.5 ± 7.75 nM.

In the next assay the target is T1, human neutrophil elastase (HNE) (Homo sapiens, UniProt P08246).
T1 construct: purchased SERVA Electrophoresis GmbH, Heidelberg, Germany #20927.01
T1 sequence (P08246 30-267): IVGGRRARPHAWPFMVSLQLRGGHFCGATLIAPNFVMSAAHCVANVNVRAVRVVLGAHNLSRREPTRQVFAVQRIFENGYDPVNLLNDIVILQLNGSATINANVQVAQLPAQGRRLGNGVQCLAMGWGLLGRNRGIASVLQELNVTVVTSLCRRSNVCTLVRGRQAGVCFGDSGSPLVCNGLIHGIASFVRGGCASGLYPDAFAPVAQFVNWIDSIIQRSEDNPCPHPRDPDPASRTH
As to the kind of experiment: In vitro inhibition of HNE using a fluorogenic peptide substrate (Example I-A). Type of assay: biochemical. As to conditions: fluorogenic peptide substrate MeOSuc-Ala-Ala-Pro-Val-AMC, 384 MTP assay format. The protocol:
I. In vitro Enzyme Assays of Human Neutrophil Elastase (HNE)
The test solution is prepared by mixing 10 μl of test compound dilution, 20 μl of HNE enzyme dilution (final concentration 8-0.4 μU/ml, routinely 2.1 μU/ml) and 20 μl of substrate dilution (final concentration 1 mM-1 μM, routinely 20 μM), respectively. The solution is incubated for 0-2 hrs at 37° C. (routinely one hour). The fluorescence of the liberated AMC due to the enzymatic reaction is measured at 37° C. (TECAN spectra fluor plus plate reader). […] IC50 values are determined by RFU-versus-[I] plots. Km and Km(app.) values are determined by Lineweaver-Burk plots and converted to Ki values by Dixon plots.
With `CC1=C(C(=O)NC2CC2)C(c2ccc(C#N)cc2)NC(=O)N1c1cccc(C(F)(F)F)c1` (centres unmarked) [Example 6, 4-(4-Cyanophenyl)-N-cyclopropyl-6-methyl-2-oxo-1-[3-(trifluoromethyl)phenyl]-1,2,3,4-tetrahydropyrimidine-5-carboxamide], the IC50 came to 200 nM.
Same read-out and setting: the result for `CC1=C(CCC(=O)O)C(c2ccc(C#N)cc2)NC(=O)N1c1cccc(C(F)(F)F)c1` (centres unmarked) [Example 78, 3-{4-(4-Cyanophenyl)-6-methyl-2-oxo-1-[3-(trifluoromethyl)phenyl]-1,2,3,4-tetrahydropyrimidin-5-yl}propanoic acid] reads 50 nM.
Still for that read-out and setting: the result for `CC1=C(C(=O)C2CC2)C(c2ccc(C#N)cc2)N(CC(=O)NS(=O)(=O)CC(F)(F)F)C(=O)N1c1cccc(C(F)(F)F)c1` (centres unmarked) [Example 45, 2-[6-(4-Cyanophenyl)-5-(cyclopropylcarbonyl)-4-methyl-2-oxo-3-[3-(trifluoromethyl)phenyl]-3,6-dihydropyrimidin-1(2H)-yl]-N-[(2,2,2-trifluoroethyl)sulfonyl]acetamide] reads 20 nM.
As to `CC1=C(C(=O)C2CCCCC2)C(c2ccc(C#N)cc2)NC(=O)N1c1cccc(C(F)(F)F)c1` (centres unmarked) [Example 21, 4-{5-(Cyclohexylcarbonyl)-6-methyl-2-oxo-1-[3-(trifluoromethyl)phenyl]-1,2,3,4-tetrahydropyrimidin-4-yl}benzonitrile], the IC50 stood at 130 nM.
As to `COC(=O)c1coc(CN2C(=O)N(c3cccc(C(F)(F)F)c3)C(C)=C(C(=O)C3CC3)C2c2ccc(C#N)cc2)n1` (centres unmarked) [Example 43, Methyl 2-{[6-(4-cyanophenyl)-5-(cyclopropylcarbonyl)-4-methyl-2-oxo-3-[3-(trifluoromethyl)phenyl]-3,6-dihydropyrimidin-1(2H)-yl]methyl}-1,3-oxazole-4-carboxylate], the IC50 stood at 23 nM. This IC50 lies about 5.7-fold lower than the previous one.
The molecule `CC1=C(C(=O)NCc2ccccc2F)C(c2ccc(C#N)cc2)NC(=O)N1c1cccc(C(F)(F)F)c1` (centres unmarked) [Example 14] showed an IC50 of 1000 nM.
Take `CC1=C(C(=O)NS(=O)(=O)c2ccc(C#N)cc2)C(c2ccc(C#N)cc2)NC(=O)N1c1cccc(C(F)(F)F)c1` (centres unmarked) [Example 73]: half-maximal inhibition (IC50) was put at 1000 nM. That is a single-digit micromolar value.
The same measure, in the same setting: with `CC1=C(C(=O)NS(=O)(=O)CC(F)(F)F)C(c2ccc(C#N)cc2)N(CC(=O)OC(C)(C)C)C(=O)N1c1cccc(C(F)(F)F)c1` (centres unmarked) [Example 69] the figure was 50 nM; with `CC1=C(CO)C(c2ccc(C#N)cc2)NC(=O)N1c1cccc(C(F)(F)F)c1` (centres unmarked) [Example 1, 4-{5-(Hydroxymethyl)-6-methyl-2-oxo-1-[3-(trifluoromethyl)phenyl]-1,2,3,4-tetrahydropyrimidin-4-yl}benzonitrile], 20 nM.
